Results reported in patent US9199028B2, “Use of entrained neutrophils to treat metastatic and micrometastatic disease in at risk patients” (MEMORIAL SLOAN-KETTERING CANCER CENTER, priority 2010, dated 2015).
Entries after “also recorded” stand apart in the source; their conditions may differ.

Columns and labels:
[1] = test system: 4T1 tumour-bearing mice; test: In vivo administration of Apocynin, spontaneous metastasis assay; set-up: species or system mouse; conditions: Apocynin 2.4 g/liter in drinking water from 24 hours after orthotopic 4T1 injection, vs control
Source text: 4T1, B16-F10, and Lewis Lung Carcinoma (LLC) murine tumour cell lines as well as the human MCF7 and MDA-MB-231 mammary tumour cell lines were purchased from the ATCC. The human 4175 (LM2) cell line was described in Minn, et al., Nature 436:518-524 (2005), herein incorporated by reference). CCL2 and CCL5 knockdown 4T1 cells were generated by lentiviral transduction with CCL2 and CCL5 specific shRNAs from the SKI shRNA lentiviral collection. 4T1, MCF7 and 4175 were orthotopically injected into the mammary fat pad. B16-F10 and LLC cells were injected intradermally. Spontaneous Metastasis Assay 4T1 cells were transduced with pLVX based lentiviral particles encoding for firefly luciferase. Balb/C or nude female mice were orthotopically injected with 5×10^6 luciferase labelled cells. Metastatic progression was monitored using IVIS200 imaging system to measure lung specific luciferase activity starting on day 3 post tumour engraftment. Analysis of metastases size distribution and number was done histologically. Tissue Injury Female FVB mice were anesthetized and shaved at the wounding site. An area of skin (4 mm in diameter) area of skin was surgically removed from the dorsal region. […]
Mice were orthotopically injected with 5×10^6 luciferase labelled 4T1 cells. […] Formation of lung metastases was monitored using the IVIS-200 optical in vivo imaging system. […]

[2] = test system: 4T1 cells; test: In vitro killing assay: TENs co-cultured with 4T1 cells in the presence of inhibitors or TGF-β; type: cell-based, mouse; conditions: TENs + 4T1 cells overnight; Apocynin 100 μM, Catalase 1,000 u/ml, Superoxide Dismutase 1,000 u/ml, Taurine 50 mM
Source text: Antibodies used for immunohistochemistry—MMP9, F4/80 and CCR2 (all from AbCam), Myeloperoxidase (Dako), Ly-6G and Cd11b (both from BD), and Cleaved Caspase 3 (Cell signalling). Antibodies used for western blotting—Actin (Sigma), CCL2 (AbCam) and CCL5 (R&D) p-SMAD2 (cell signalling). Antibodies used for FACS analysis FITC-Ly-6G, FITC-Cd11b, FITC-F4/80, FITC-Cd34 and FITC-c-Kit (all from BD) and VEGFR1-AP (R&D). Neutrophil Depletion Neutrophil depletion was achieved using daily IP injections of 12.5 μg Rat anti-Gr-1 antibody (BD) or Rat anti-Ly-6G antibody (BD) starting on day 3 post tumour engraftment. Starting on day 14, neutrophil depleting antibodies were administered twice daily. Control mice were injected with […] Rat isotype control (BD). Neutrophil depletion was monitored by manual blood differentials and FACS analysis. Flow Cytometry Peripheral blood was collected into EDTA-coated tubes, washed and resuspended in FACS buffer solution (PBS, 2% heat-inactivated FCS, 5 mM EDTA, and 0.02% sodium azide). The samples were blocked with […] and then incubated with fluorophore-conjugated antibodies. Erythrocytes were then lysed with FACS lysing solution (BD Biosciences) and the cell suspensions were analyzed on a FACSCalibur (BD Biosciences). Colony Formation Assay Female nude mice were orthotopically injected with 5×10^6 puromicin resistant 4T1 cells. On days 7 and 14 post tumour engraftment the mice were sacrificed and perfused with PBS. The lungs and livers were removed, washed with PBS and dissociated with Collagenase A (Roche). The single cell suspension was then plated onto puromicin containing media and selected for 14 day. Colonies were stained with Methylene-Blue and counted manually. Mouse Neutrophil Purification Whole blood was collected by cardiac puncture using heparinized (Sigma) syringe. The blood was diluted with 5 volumes of PBS containing 0.5% BSA and subjected to a discontinuous Histopaque (Sigma) gradient (1.077 and 1.119). Neutrophils were collected from the 1.077-1.119 interface, lymphocytes and monocytes collected from the plasma-1.077 interface. RBCs were eliminated by hypotonic lysis. The cells were washed twice with PBS-BSA and re-suspended in OptiMEM (Invitrogen) 0.5% FBS in a final concentration of 2×10^6 cells/ml. Neutrophil purity and viability were determined visually and were consistently >98%. Human Neutrophil Purification As part of a Memorial Sloan-Kettering Cancer Center institutionally approved protocol, blood samples (˜10 cc) were collected from healthy volunteers or from patients who were already having blood drawn for pre-surgical testing. Patients were consented accordingly as part of the approved protocol. […] Patients had either mastectomies or lumpectomies planned and had blood drawn prior to definitive surgical removal of their primary tumor or chemotherapy. Blood samples were transferred to the lab for analysis no more than 1 hour post-blood draw. Heparinzed blood (20 U/ml final) was mixed with an equal volume of Dextran 500 (3% in saline) and incubated 30 minutes at room temperature. The leukocyte-rich supernatant was layered on top of histopaque 1077 (Sigma) and centrifuged. Neutrophils, collected in the pellet fraction, were resuspended in 10 ml 0.2% NaCl for 30 seconds to remove contaminating erythrocytes. Isotonicity was restored by the addition of 10 ml 1.6% NaCl. Neutrophils were than washed three times in Hanks's balanced salt solution and resuspended in RPMI+FCS2%. In vitro Killing Assay Luciferase labelled cells (5,000/well) were plated on a 96-well, flat bottom white polystyrene tissue culture plate in OptiMEM 0.5% FBS (mouse neutrophils) or RPMI 2% FBS (human neutrophils). 4 hours later, purified neutrophils (100,000/well for mouse neutrophils and 5000 for human neutrophils) were added to the plated tumour cells and co-cultured overnight. […]

[3] = TGFbeta inhibitor, Tocris; cited from earlier work

## COc1cc(C(C)=O)ccc1O [Apocynin]
[1]
  spontaneous lung metastasis (lung specific luciferase activity): enhanced; also recorded: enhances metastasis
[2]
  neutrophil (TEN) mediated tumour-cell killing in the presence of inhibitor: completely inhibits the neutrophil mediated tumour-cell killing

## NC(=O)c1ccc(-c2nc(-c3ccc4c(c3)OCO4)c(-c3ccccn3)[nH]2)cc1 [SB431542]
[3]
  IC50: 94 nM
